In patent US20230364204A1, “Bioactive Peptides, Compositions, Production Process, and Use of Bioactive Peptides as Anti-Tumoral Agents” (priority 2022, published 2023):

Assays:
[1] = tested on: MDA-MB-231 cells implanted in zebrafish larvae; test: Zebrafish xenograft model of MDAMB231 (primary tumor and metastasis); type: in vivo; details: 72 h, 3-NantC co-implanted at 75, 100 or 125 mg/mL, Doxorubicin 2.5 µg/mL in embryo water
Procedure: Transgenic Tg(fli1:EGFP)y1 zebrafish embryos were raised at 28° C. for 48 hours in E3 embryo medium 0.2 mM 1-Phenyl-2-Thiourea aka PTU. […] MDA-MB-231 cells were labeled with Dil red fluorescent dye. Approximately 700 Dil Labeled cancer cells were subcutaneously co-implanted into the perivitelline space of 2 days old larvae ± 3-NantC peptide at […]. Larvae in which tumor cells had been inadvertently injected into circulation or larvae with erroneous implantation of the tumor in the yolk rather than the perivitelline space were excluded from the study. Selected tumor bearing embryos were sorted into experimental groups (20 embryos/group), and pictures of primary tumors were taken right after injection. Doxorubicin treatment was added to embryo water at 2.5 µg/mL according to the study plan. Tumor-bearing embryos were incubated in E3/PTU medium for 72 h at 36° C. After incubation, pictures of the primary tumors and the CVP were taken using a red fluorescent filter. Larvae that died or were lost by other means during the study were excluded from the final analysis.
Images obtained right after implantation (day 0) and after 72 h incubation (day 3) were analyzed by using in-house developed software. Tumor growth regression was calculated and normalized to the negative control group. The number of metastasized cells was counted manually. One-way ANOVA was performed followed by two-tailed Student’s t-test. Definitive outliers were detected using the ROUT method with a Q=1%. Graphs and example images, and experimental data were obtained/analyzed by using GraphPad Prism v9.0.2.

[2] = MTT cell viability, mammary benign cells; type: cell-based; details: human, MCF10A cells (mammary benign cells), read-out: viable cells (MTT)
Procedure: (§1) For the method of MTT, the cells were plated in 96-well sterile plates for cell culture with a cap at the density of 2 × 10^4 cells/well for treatments lasting 24 h and 1 × 10^4 cells/well for treatments lasting 48 h or more, completing the volume to 100 µL with culture medium. The plates were incubated for 8-16 h in an incubator at 37° C. and 5% CO2. The next day, the treatments were prepared in culture medium, applying 200 µL/well at the desired concentration, and the plates were placed in an incubator at 37° C. and 5% CO2for the duration of treatment. After the treatment period, 20 µL/well of a MTT solution was added in PBS (1×) at a concentration of 5 mg/mL, and the dye was incubated at 37° C. and 5% CO2 for 2.5 h. After incubation with MTT, Formazan salts were solubilized with the addition of 200 µL of dimethylsulfoxide solution (DMSO): isopropanol (3:1) and agitated for at least 15 minutes at room temperature. After complete dissolution of the salts, the absorbance was read in a spectrophotometer at 570 nm with endpoint protocol.
(§2) The calculation of cell viability was performed using the formula: […]
(§3) O.D.: optical density captured by spectrophotometer
(§4) NOTE: The Basal O.D. is the one found in the blank wells.

[3] = tested on: MDAMB231 cells (triple negative); test: MTT cell viability, tumor cells; type: cell-based
Procedure: as §1, §2, §3, §4
In order to determine the efficacy (comparison of doses and times for the MDAMB231 cell line) and safety (comparison between the effects on MDAMB231 and HDFa cells) of the peptide SEQ ID 1 - MFYPDSRCRGPSET (C-terminal region of Crotoxin B), named 3-NAntC, the Analysis of Variance (ANOVA) with Bonferroni post-hoc test was applied to the significance of 5% in GraphPad Prism software version 6.0.

Compound: COc1cccc2c1C(=O)c1c(O)c3c(c(O)c1C2=O)C[C@@](O)(C(=O)CO)C[C@@H]3O[C@H]1C[C@H](N)[C@H](O)[C@H](C)O1 [Doxorubicin, reference compound]
- decrease of tumor cells (primary tumor) [1]: about 35%

Compound: H-AIPFYAFY-OH [Peptide B, [H)-AIPFYAFY-(OH]]
- viability at 48 h [2]: ~85%

Compound: MFYPDSRSRGPSET [SEQ ID 10, 3-NAntC monomer]
- compared efficacy in decreasing MDAMB231 cells' viability (MTT, FIG. 13/14) ([3]; MDAMB231, SEQ IDs 2-10 compared to SEQ ID 1): interesting antitumor effect

Compound: [H]-HLLQ FNKMIKFETRKNAIPF-[OH] (N-terminal HLLQ) [Peptide A, peptide derived from the N-terminal region of Crotoxin B, reference compound]
- effect on viability of the tumor cells (MTT), in words ([3]; MDAMB231): did not decrease the viability
